Test results taken from US8822517B2, “Arylosulfonamides for the treatment of CNS diseases” (Adamed SP. Z O.O., priority 2010, dated 2014).

What was measured:
[1] = target: serotoninergic 5-HT2A receptor (Homo sapiens, UniProt P28223); assay: Binding assay 5-HT2A (h), [3H]ketanserin, HEK-293 cells; parameters: expressed in transfected cells; host or cells: HEK-293 cells; details: read-out: 5-HT2A
How it was run: (§1)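 Tested at 1×10^−6 M. Specific binding: total minus binding remaining with excess cold ligand. Detection: scintillation counting.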

[2] = system: adrenergic α1 receptor; assay: Binding assay α1 (non-selective), [3H]prazosin, rat cerebral cortex; details: percent inhibition of control specific binding; compounds tested at 1×10^−6 M
How it was run: as §1

[3] = target: serotoninergic 5-HT6 receptor (Homo sapiens, UniProt P50406); assay: Binding assay 5-HT6 (h), [3H]LSD, CHO cells; parameters: expressed in transfected cells; host or cells: CHO cells; details: read-out: 5-HT6
How it was run: as §1

[4] = target: serotoninergic 5-HT7 receptor (Homo sapiens, UniProt P34969); assay: Binding assay 5-HT7 (h), [3H]LSD, CHO cells; parameters: expressed in transfected cells; host or cells: CHO cells; details: read-out: 5-HT7
How it was run: as §1

[5] = target: T1, serotonine transporter (SERT) receptor (Homo sapiens, UniProt P31645); assay: Binding assay SERT (h), [3H]imipramine, CHO cells; details: read-out: SERT [%]
T1 construct: expressed in transfected cells; host or cells: CHO cells
How it was run: as §1

[6] = target: dopaminergic D3 receptor (Homo sapiens, UniProt P35462); assay: Binding assay D3 (h), [3H]methyl-spiperone, CHO cells; parameters: expressed in transfected cells; host or cells: CHO cells; details: read-out: D3 [%]
How it was run: as §1

[7] = target: T2, serotoninergic 5-HT1A receptor (Homo sapiens, UniProt P08908); assay: Binding assay 5-HT1A (h), [3H]8-OH-DPAT, HEK-293 cells; parameters: expressed in transfected cells; host or cells: HEK-293 cells; details: read-out: 5-HT1A
T2 sequence (P08908 1-422): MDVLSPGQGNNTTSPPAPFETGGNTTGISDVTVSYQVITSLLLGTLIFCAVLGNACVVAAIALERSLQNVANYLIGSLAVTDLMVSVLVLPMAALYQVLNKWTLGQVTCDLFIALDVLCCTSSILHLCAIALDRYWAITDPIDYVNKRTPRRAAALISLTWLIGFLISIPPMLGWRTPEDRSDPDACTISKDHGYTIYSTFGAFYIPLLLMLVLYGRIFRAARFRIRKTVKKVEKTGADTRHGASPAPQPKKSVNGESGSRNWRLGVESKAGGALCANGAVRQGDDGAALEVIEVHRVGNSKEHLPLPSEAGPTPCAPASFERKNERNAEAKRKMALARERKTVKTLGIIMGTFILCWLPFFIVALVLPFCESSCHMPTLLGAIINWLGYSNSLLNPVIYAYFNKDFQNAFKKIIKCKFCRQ
How it was run: as §1

[8] = target: dopaminergic D2 receptor (Homo sapiens, UniProt P14416); assay: Binding assay D2S (h), [3H]methyl-spiperone, HEK-293 cells; parameters: expressed in transfected cells; host or cells: HEK-293 cells; details: read-out: D2 [%]
How it was run: as §1

Sequence of serotoninergic 5-HT6 receptor (P50406 whole entry): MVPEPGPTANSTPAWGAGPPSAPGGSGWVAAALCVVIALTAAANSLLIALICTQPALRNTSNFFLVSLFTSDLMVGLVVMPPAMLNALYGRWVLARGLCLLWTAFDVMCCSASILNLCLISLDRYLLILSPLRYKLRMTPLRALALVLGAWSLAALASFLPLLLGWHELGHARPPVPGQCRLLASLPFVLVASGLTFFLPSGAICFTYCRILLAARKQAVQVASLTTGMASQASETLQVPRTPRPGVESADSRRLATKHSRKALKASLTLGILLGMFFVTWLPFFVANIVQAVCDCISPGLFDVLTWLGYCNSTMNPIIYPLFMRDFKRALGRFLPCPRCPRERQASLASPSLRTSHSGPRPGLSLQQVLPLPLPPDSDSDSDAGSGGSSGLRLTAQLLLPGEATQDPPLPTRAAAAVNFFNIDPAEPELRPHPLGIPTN
Sequence of serotoninergic 5-HT2A receptor (P28223 whole entry): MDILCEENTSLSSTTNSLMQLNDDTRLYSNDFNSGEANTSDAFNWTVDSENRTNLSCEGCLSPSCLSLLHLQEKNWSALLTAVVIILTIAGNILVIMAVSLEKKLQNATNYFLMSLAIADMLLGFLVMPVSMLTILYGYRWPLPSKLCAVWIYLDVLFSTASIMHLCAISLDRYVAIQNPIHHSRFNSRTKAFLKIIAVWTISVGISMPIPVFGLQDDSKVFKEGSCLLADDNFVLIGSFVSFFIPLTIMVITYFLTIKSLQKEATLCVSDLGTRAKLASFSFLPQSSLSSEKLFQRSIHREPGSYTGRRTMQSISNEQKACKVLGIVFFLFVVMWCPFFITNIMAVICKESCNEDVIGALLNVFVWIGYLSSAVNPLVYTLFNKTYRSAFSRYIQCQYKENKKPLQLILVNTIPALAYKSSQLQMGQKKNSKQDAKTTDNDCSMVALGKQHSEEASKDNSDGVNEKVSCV
Sequence of dopaminergic D3 receptor (P35462 whole entry): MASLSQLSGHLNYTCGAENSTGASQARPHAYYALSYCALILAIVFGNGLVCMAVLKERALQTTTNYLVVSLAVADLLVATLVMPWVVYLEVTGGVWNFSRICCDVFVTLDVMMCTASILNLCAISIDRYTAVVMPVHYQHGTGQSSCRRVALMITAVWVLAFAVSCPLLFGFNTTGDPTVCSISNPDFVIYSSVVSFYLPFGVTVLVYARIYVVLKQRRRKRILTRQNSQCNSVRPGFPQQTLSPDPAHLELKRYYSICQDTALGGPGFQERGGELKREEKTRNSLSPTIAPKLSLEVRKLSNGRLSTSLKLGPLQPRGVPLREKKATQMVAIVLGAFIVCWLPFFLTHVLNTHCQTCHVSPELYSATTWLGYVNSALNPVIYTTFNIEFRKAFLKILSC
Sequence of dopaminergic D2 receptor (P14416 1-414 isoform P14416-2): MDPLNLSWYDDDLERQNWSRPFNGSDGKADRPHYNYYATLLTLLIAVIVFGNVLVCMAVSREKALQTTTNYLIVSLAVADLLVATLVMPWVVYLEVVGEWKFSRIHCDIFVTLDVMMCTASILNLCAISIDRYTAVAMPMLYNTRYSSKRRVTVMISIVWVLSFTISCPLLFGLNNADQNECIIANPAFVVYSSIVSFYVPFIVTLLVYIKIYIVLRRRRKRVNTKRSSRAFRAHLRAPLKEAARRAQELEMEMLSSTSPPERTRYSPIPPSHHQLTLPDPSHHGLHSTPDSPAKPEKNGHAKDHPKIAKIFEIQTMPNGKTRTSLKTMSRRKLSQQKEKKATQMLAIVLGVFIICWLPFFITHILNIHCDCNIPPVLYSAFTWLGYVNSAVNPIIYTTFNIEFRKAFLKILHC
T1 sequence (P31645 whole entry): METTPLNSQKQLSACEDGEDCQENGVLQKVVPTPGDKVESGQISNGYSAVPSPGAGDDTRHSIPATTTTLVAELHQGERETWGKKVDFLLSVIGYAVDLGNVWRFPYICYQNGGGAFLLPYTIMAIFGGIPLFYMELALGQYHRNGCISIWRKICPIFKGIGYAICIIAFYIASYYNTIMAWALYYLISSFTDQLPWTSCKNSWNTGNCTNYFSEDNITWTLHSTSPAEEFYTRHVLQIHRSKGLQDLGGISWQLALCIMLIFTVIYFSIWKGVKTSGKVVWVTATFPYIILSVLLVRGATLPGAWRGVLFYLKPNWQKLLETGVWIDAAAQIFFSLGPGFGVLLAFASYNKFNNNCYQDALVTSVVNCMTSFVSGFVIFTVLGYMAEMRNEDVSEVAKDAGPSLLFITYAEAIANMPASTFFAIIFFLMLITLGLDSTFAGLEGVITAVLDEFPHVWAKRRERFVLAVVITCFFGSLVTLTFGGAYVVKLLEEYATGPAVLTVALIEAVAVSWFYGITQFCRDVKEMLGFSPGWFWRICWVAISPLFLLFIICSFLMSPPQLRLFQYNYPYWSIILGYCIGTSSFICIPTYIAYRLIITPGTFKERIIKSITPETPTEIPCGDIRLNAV
Sequence of serotoninergic 5-HT7 receptor (P34969 whole entry): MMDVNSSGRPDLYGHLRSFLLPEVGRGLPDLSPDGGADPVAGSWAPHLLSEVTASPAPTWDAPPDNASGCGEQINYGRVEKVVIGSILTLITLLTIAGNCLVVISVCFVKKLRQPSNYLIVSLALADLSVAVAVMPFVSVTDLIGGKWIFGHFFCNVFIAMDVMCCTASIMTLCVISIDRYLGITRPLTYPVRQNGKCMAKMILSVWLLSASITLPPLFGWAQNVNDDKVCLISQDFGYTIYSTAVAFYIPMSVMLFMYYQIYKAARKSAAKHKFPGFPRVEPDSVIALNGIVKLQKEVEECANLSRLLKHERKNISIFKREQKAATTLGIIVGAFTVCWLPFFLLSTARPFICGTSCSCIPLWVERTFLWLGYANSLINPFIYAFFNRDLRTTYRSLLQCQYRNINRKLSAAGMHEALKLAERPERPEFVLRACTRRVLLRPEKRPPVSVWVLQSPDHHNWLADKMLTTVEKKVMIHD

| Structure (SMILES) | inhibition at 1 µM [1] | α1 [%] [2] | inhibition at 1 µM [3] | inhibition at 1 µM [4] | inhibition at 1 µM [5] | inhibition at 1 µM [6] | inhibition at 1 µM [7] | inhibition at 1 µM [8] |
| --- | --- | --- | --- | --- | --- | --- | --- | --- |
| O=S(=O)(NCCCCN1CCC(c2noc3cc(F)ccc23)CC1)c1ccc2cn[nH]c2c1 [Compound 319, N-[4-[4-(6-Fluoro-1,2-benzoxazol-3-yl)piperidin-1-yl]butyl]-1H-indazole-6-sulphonamide] | 88% | 94% | 87% | 90% | 8% | 90% | 55% | 109% |
| O=S(=O)(NCCCN1CCC(c2noc3cc(F)ccc23)CC1)c1ccc(F)c(F)c1 [Compound 327, 3,4-Difluoro-N-[3-[4-(6-fluoro-1,2-benzoxazol-3-yl)piperidin-1-yl]propyl]benzenesulphonamide] | 91% | 109% | 99% | 86% | -1% | 97% | 67% | 89% |
| COc1cccc(S(=O)(=O)NCCCCN2CCN(c3cccc4c3OCCO4)CC2)c1 [Compound 394, N-[4-[4-(2,3-Dihydro-1,4-benzodioxin-5-yl)piperazin-1-yl]butyl]-3-methoxybenzenesulphonamide] | 71% | 92% | 18% | 98% | 12% | 86% | 95% | 72% |
| Cc1cccc(S(=O)(=O)NCCCCN2CCN(c3cccc4c3OCCO4)CC2)c1 [Compound 395, N-[4-[4-(2,3-Dihydro-1,4-benzodioxin-5-yl)piperazin-1-yl]butyl]-3-methylbenzenesulphonamide] | 61% | 92% | -35% | 83% | 69% | 87% | 75% | 61% |
| O=S(=O)(NCCCN1CCC(c2noc3cc(F)ccc23)CC1)c1cccc(F)c1 [Compound 108, 3-Fluoro-N-[3-[4-(6-fluoro-1,2-benzoxazol-3-yl)piperidin-1-yl]propyl]benzenesulphonamide] | 88% | 100% | 86% | 90% | -9% | 98% | 48% | 106% |
| O=S(=O)(NCCCCN1CCN(c2noc3ccccc23)CC1)c1ccc2c(c1)CCO2 [Compound 289, N-[4-[4-(1,2-Benzoxazol-3-yl)piperazin-1-yl]butyl]-2,3-dihydrobenzofuran-5-sulphonamide] | 94% | 100% | 78% | 91% | 9% | 79% | 68% | 99% |
| O=S(=O)(NCCCCN1CCN(c2noc3ccccc23)CC1)c1ccc2cn[nH]c2c1 [Compound 291, N-[4-[4-(1,2-Benzoxazol-3-yl)piperazin-1-yl]butyl]-1H-indazole-6-sulphonamide] | 83% | 99% | 83% | 99% | 8% | 85% | 38% | 99% |
| O=S(=O)(NCCCCN1CCN(c2nsc3ccccc23)CC1)c1ccc(-c2ccccc2)cc1 [Compound 237, N-[4-[4-(1,2-Benzothiazol-3-yl)piperazin-1-yl]butyl]-4-phenylbenzenesulphonamide] | 24% | 87% | 89% | 64% | -7% | 85% | 51% | 62% |
| O=C1COc2c(cccc2N2CCN(CCCCNS(=O)(=O)c3cccc(Cl)c3)CC2)N1 [Compound 209, 3-Chloro-N-[4-[4-(3-oxo-4H-1,4-benzoxazin-8-yl)piperazin-1-yl]butyl]benzenesulphonamide] | 29% | 90% | 70% | 85% | -1% | 103% | 92% | 82% |
| O=S(=O)(NCCCCN1CCC(c2noc3cc(F)ccc23)CC1)c1cccc2scnc12 [Compound 318, N-[4-[4-(6-Fluoro-1,2-benzoxazol-3-yl)piperidin-1-yl]butyl]-1,3-benzothiazole-4-sulphonamide] | 89% | 98% | 76% | 92% | 45% | 95% | 96% | 67% |
| Cc1c(S(=O)(=O)NCCCCN2CCN(c3cccc4[nH]ccc34)CC2)sc2ccc(F)cc12 [Compound 364, 5-Fluoro-N-[4-[4-(1H-indol-4-yl)piperazin-1-yl]butyl]-3-methylbenzothiophene-2-sulphonamide] | 89% | 87% | 80% | 91% | 35% | 100% | 92% | 100% |
| O=S(=O)(NCCCCN1CCC(c2noc3cc(F)ccc23)CC1)c1c[nH]c2ncccc12 [Compound 323, N-[4-[4-(6-Fluoro-1,2-benzoxazol-3-yl)piperidin-1-yl]butyl]-1H-pyrrolo[2,3-b]pyridine-3-sulphonamide] | 96% | 103% | 92% | 93% | 41% | 96% | 45% | 105% |
| Cc1[nH]c2ccc(Cl)cc2c1C1=CCN(CCCCNS(=O)(=O)c2cccc(F)c2)CC1 [Compound 139, N-[4-[4-(5-Chloro-2-methyl-1H-indol-3-yl)-3,6-dihydro-2H-pyridin-1-yl]butyl]-3-fluorobenzenesulphonamide] | 41% | 20% | 96% | 56% | 17% | 92% | 57% | 52% |
| O=S(=O)(NCCCCN1CCN(c2noc3ccccc23)CC1)c1ccc(Cl)cc1 [Compound 273, N-[4-[4-(1,2-Benzoxazol-3-yl)piperazin-1-yl]butyl]-4-chlorobenzenesulphonamide] | 95% | 101% | 74% | 97% | 22% | 85% | 46% | 88% |
| O=S(=O)(NCCCN1CCC(c2noc3cc(F)ccc23)CC1)c1cc2ccccc2o1 [Compound 349, N-[3-[4-(6-Fluoro-1,2-benzoxazol-3-yl)piperidin-1-yl]propyl]benzofuran-2-sulphonamide] | 108% | 98% | 87% | 91% | 0% | 100% | 49% | 93% |
| O=S(=O)(NCCCCN1CCN(c2nsc3ccccc23)CC1)c1ccc(Cl)c(Cl)c1 [Compound 228, N-[4-[4-(1,2-Benzothiazol-3-yl)piperazin-1-yl]butyl]-3,4-dichlorobenzenesulphonamide] | 91% | 92% | 87% | 98% | 16% | 92% | 81% | 103% |
| O=S(=O)(NCCCCN1CCN(c2nsc3ccccc23)CC1)c1ccc(F)c(F)c1 [Compound 226, N-[4-[4-(1,2-Benzothiazol-3-yl)piperazin-1-yl]butyl]-3,4-difluorobenzenesulphonamide] | 100% | 94% | 78% | 92% | 4% | 90% | 90% | 87% |
